Data from US8377899B2, “Composition for treatment of cervix cancer” (priority 2006, dated 2013).

How the values were obtained:
HeLa cells [1] = assay: Western blotting of p53 in HeLa cells treated with cisplatin; assay type: cell-based; settings: 40 μM of cisplatin
Description: To investigate the effect of cisplatin on cervix cancer cells, HeLa cells were treated with cisplatin. 24 hours before the treatment, 1×10^6 cells were distributed in 100 mm culture dish and cultured at 37° C. with 5% CO2 and 100% humidity. Then, the cells were treated with 40 μM of cisplatin. 24 hours later, Western blotting was performed to measure the level of p53.

HeLa cells [2] = assay: MTT assay, cytotoxic effect of cisplatin; assay type: cell-based; settings: cisplatin 0.625-80 μM for 48 hours
Description: The present inventors also investigated cytotoxic effect of cisplatin on HeLa cells by MTT assay. HeLa cells were treated with different concentrations of cisplatin (0.625, 1.25, 2.5, 5, 10, 25, 40, and 80 μM) for 48 hours, followed by MTT assay to measure the cell growth inhibitory effect.

HeLa cells [3] = assay: Long-term combination therapy of E6 siRNA and cisplatin, trypan blue cell count; assay type: cell-based; settings: 7th day; siRNA 100 nM transfected twice and/or cisplatin 1.25 μM for 4 days
Description: To evaluate cytotoxic effect of the long-term combination therapy of synthetic E6 siRNA and cisplatin chemotherapy on cervix cancer cells, HeLa cells were co-treated for a long period of time.
Then, the single therapy group (treated with 18E6-1 siRNA, 18E6-2 siRNA or cisplatin alone) and the combination therapy group (treated with cisplatin and 18E6-1 siRNA or 18E6-2 siRNA) were compared. To obtain the maximum RNAi efficiency, siRNA transfection was repeated after 24 hours from the first transfection. For the transfection, 13 μl of opti-MEM (Gibco, USA) and 2 μl of oligofectamine were added into a 1.5 ml E-tube. To the other 1.5 ml E-tube were added 100 nM of siRNA and opti-MEM to make total volume […]. 5 minutes later, the content of the E-tube containing oligofectamine was transferred into the other E-tube to make the total volume 200 μl, which stood by for 20 minutes to form a complex. […] On the 7th day of culture, the cells were recovered by treating with trypsin, stained with 0.3% trypan blue solution and counted with hemocytometer.
The cells were cultured in normal growth medium for additional 7 days, and harvested by treating them with trypsin. The cells were stained with 0.3% trypan blue and counted with hemocytometer (FIG. 11). […]

HeLa cells [4] = assay: Cell morphology after single and combination therapy (phase contrast microscope); assay type: cell-based; settings: 7th day of the treatment
Excerpt: The present inventors cultured the cells in normal media additionally for 7 days to observe morphological changes.

HeLa cells [5] = assay: Apoptosis, annexin V and propidium iodide flow cytometry; assay type: cell-based; settings: 7th day of the treatment, attached cells
Excerpt: To examine apoptosis in the cells treated with 18E6-1 siRNA or 18E6-2 siRNA, the cells attached on the 7th day of the treatment were collected, stained with annexin V and propidium iodide (PI) and analyzed by flow cytometry. Apoptosis rates between the single therapy group and the combination therapy group were compared.

HeLa cells [6] = assay: Senescence, SA β-Gal activity staining; assay type: cell-based
Description: The present inventors further investigated whether the combination therapy of cisplatin with 18E6 siRNAs induced HeLa cell senescence. The inventors measured SA β-Gal activity on the 7th day of the treatment. The cells were washed with PBS using a senescence detection kit (BIoVision, USA) and treated with SA-β-gal staining solution at 37° C. for 12 hours. The cells stained with blue were observed under microscope (×100-200).
Three photographs of the cells were taken randomly to investigate the stained cells (FIG. 17).

HeLa-Luc cells = assay: Cervix cancer xenograft model, luciferase bioluminescence tumor size; assay type: in vivo, balb-C nude mouse; settings: after 2 weeks; siRNA 2 mg/kg and/or cisplatin 0.5 mg/kg, intraperitoneal, every other day by turns, 7 times
Description: To generate the cervix cancer xenograft model, 5×10^6 HeLa-Luc cells were injected subcutaneously into a 5 week old female balb-C nude mouse. 7 days later, tumor generation was confirmed. Then, the mouse was treated with siRNA (2 mg/kg) and cisplatin (0.5 mg/kg) every other day by taking turns, 7 times (intraperitoneal injection).
Isofluran was used as an anesthetic for in vivo imaging. Luciferase activity, which increases with the growth of a tumor, was measured 15 minutes after intraperitoneal injection of luciferin.
Bioluminescence signal released by luciferase was represented as the unit of photons/second/steradian/cm2, and the luciferase signal increases as the tumor grew.

Compound: N.N.[Cl][Pt][Cl] [cisplatin]
- expression level of p53 (HeLa cells [1]): dramatically increased
- time at which the level of p53 reached the peak (HeLa cells [1]): 24 h
- time for which the high level of p53 was constantly observed (HeLa cells [1]): 48 h
- cell survival rate (HeLa cells [2]): reduced cisplatin dose dependently
- cell growth (cell number) (HeLa cells [3]): not significant
- cell growth observed by microscope (HeLa cells [4]): grown regularly
- apoptosis (HeLa cells [5]): not increased
- number of stained cells in three random photographs (HeLa cells [6]; 7th day of the treatment (FIG. 17)): Only a small amount of cells were stained
- SA-β-Gal stained (blue) cells (HeLa cells [6]; 7th day of the treatment, microscope (FIG. 16)): some of the blue cells
- tumor size (HeLa-Luc cells): not much different
